# Laboratory results published in US20090248141A1, “Shape Memory Polymer Medical Devices” (THE REGENTS OF THE UNIVERSITY OF COLORADO, priority 2006, published 2009).
# Experiment: Cytotoxicity tests of photoinitiator in polymer system
# Type: cell-based
# Conditions: photoinitiator at about 0.01-1 wt % of the polymer system
# Protocol: A UV-Lamp (Model B100AP; Black-Ray) was used to photopolymerize the solutions for 10 minutes at an intensity of 10 mW/cm^2. The mould is slowly but constantly rotated during photopolymerization. After processing of all materials, polymers were heat treated at 90° C. for 1 hour to ensure the complete conversion of monomers. The photoinitiator 2,2-dimethoxy-2-phenylacetephenone was used although a variety of other initiators can also be used. […] Glass transition temperature (Tg) and rubbery modulus can be controlled by, for example, changing the weight percent (wt %) of the crosslinker, for example, PEGDMA (Mn 550) as shown in FIG. 9.
smiles,measurement,value
"COC(OC)(C(=O)c1ccccc1)c1ccccc1 [2,2-dimethoxy-2-phenylacetephenone]",biocompatibility of the polymer (cytotoxicity tests),should not affect the biocompatibility of the polymer
